Legend:
[1] = system: giant foxtail; assay: Test B pre/postemergence giant foxtail; format: in vivo, Setaria faberii
Procedure, shortened: (§1)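 Test chemicals in a non-phytotoxic solvent mixture with surfactant were sprayed preemergence onto planted seeds and postemergence onto plants 2 to 18 cm tall (1- to 4-leaf stage). After twelve to sixteen days in a greenhouse, injury was visually rated against untreated controls from 0 (no effect) to 10 (complete control).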

[2] = system: morningglory; assay: Test B pre/postemergence morningglory; format: in vivo, Ipomoea hederacea
Procedure, shortened: as §1

[3] = system: surinam grass; assay: Test B pre/postemergence surinam grass; format: in vivo, Brachiaria decumbens
Procedure, shortened: as §1

[4] = system: wild oat; assay: Test B pre/postemergence wild oat; format: in vivo, Avena fatua
Procedure, shortened: as §1

[5] = system: soybean; assay: Test B pre/postemergence soybean; format: in vivo, Glycine max
Procedure, shortened: as §1

[6] = system: rape; assay: Test B pre/postemergence rape; format: in vivo, Brassica napus
Procedure, shortened: as §1

[7] = system: velvetleaf; assay: Test B pre/postemergence velvetleaf; format: in vivo, Abutilon theophrasti
Procedure, shortened: as §1

[8] = system: corn; assay: Test B pre/postemergence corn; format: in vivo, Zea mays
Procedure, shortened: as §1

[9] = system: pigweed; assay: Test B pre/postemergence pigweed; format: in vivo, Amaranthus retroflexus
Procedure, shortened: as §1

[10] = system: wheat; assay: Test B pre/postemergence wheat; format: in vivo, Triticum aestivum
Procedure, shortened: as §1

[11] = system: sugar beet; assay: Test B pre/postemergence sugar beet; format: in vivo, Beta vulgaris
Procedure, shortened: as §1

[12] = system: bedstraw; assay: Test B pre/postemergence bedstraw; format: in vivo, Galium aparine
Procedure, shortened: as §1

[13] = system: blackgrass; assay: Test B pre/postemergence blackgrass; format: in vivo, Alopecurus myosuroides
Procedure, shortened: as §1

[14] = system: rice; assay: Test B flood test rice; format: in vivo, Oryza sativa; settings: Pre-emergence
Procedure, shortened: (§2)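 Each value is a visual injury score relative to controls, with 10 meaning complete control and 0 no effect. Evaluation took place twelve to sixteen days after the 2-leaf-stage plants were treated and kept in the greenhouse.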

[15] = system: smallflower flatsedge; assay: Test B flood test smallflower flatsedge; format: in vivo, Cyperus difformis; settings: Pre-emergence
Procedure, shortened: as §2

[16] = system: cocklebur; assay: Test B pre/postemergence cocklebur; format: in vivo, Xanthium strumarium
Procedure, shortened: as §1

[17] = Preemergence, Rate 62 g/ha, scale of 0 to 10 where 0 is no effect and 10 is complete control
[18] = Preemergence, Rate 250 g/ha, scale of 0 to 10 where 0 is no effect and 10 is complete control
[19] = Preemergence, Rate 500 g/ha, scale of 0 to 10 where 0 is no effect and 10 is complete control
[20] = Rate 62 g/ha, Postemergence, scale 0 to 10, 0 no effect, 10 complete control
[21] = Rate 125 g/ha, Postemergence, scale of 0 to 10 where 0 is no effect and 10 is complete control
[22] = Rate 250 g/ha, Postemergence, scale of 0 to 10 where 0 is no effect and 10 is complete control
[23] = Rate 500 g/ha, Postemergence, scale 0 to 10, 0 no effect, 10 complete control
[24] = Rate 1000 g/ha, scale 0 to 10 (0 no effect, 10 complete control)
[25] = Rate 125 g/ha, flood test species, scale 0 to 10 where 0 is no effect and 10 is complete control
[26] = Rate 250 g/ha, flood-test species, scale 0 to 10, 0 is no effect, 10 is complete control

## CC(C)N(C(=O)n1oc(=O)n(CC2CCCC2)c1=O)c1ccc(F)cc1 [Compound 322]
[1]; [17]
  Giant foxtail plant response rating: 6
[1]; Preemergence, Rate 125 g/ha
  Giant foxtail plant response rating (0 to 10 scale): 9
[1]; [18]
  Giant foxtail plant response rating: 9
[1]; [19]
  Giant foxtail plant response rating: 10
[1]; [20]
  Giant foxtail plant response rating: 0
[1]; [21]
  Giant foxtail plant response rating: 0
[1]; [22]
  Plant response rating, Giant foxtail: 1
[1]; [23]
  Plant response rating, Giant foxtail: 4
[2]; [17]
  Morningglory plant response rating: 0
[2]; Preemergence, Rate 125 g/ha
  Morningglory plant response rating (0 to 10 scale): 0
[2]; [18]
  Morningglory plant response rating: 0
[2]; [19]
  Morningglory plant response rating: 0
[2]; [20]
  Morningglory plant response rating: 4
[2]; [21]
  Morningglory plant response rating: 4
[2]; [22]
  Plant response rating, Morningglory: 7
[2]; [23]
  Plant response rating, Morningglory: 8
[3]; [17]
  B. signalgrass plant response rating: 0
[3]; Preemergence, Rate 125 g/ha
  B. signalgrass plant response rating (0 to 10 scale, 0 is no effect, 10 is complete control): 0
[3]; [18]
  B. signalgrass plant response rating: 1
[3]; [19]
  B. signalgrass plant response rating: 3
[3]; [20]
  B. signalgrass plant response rating: 0
[3]; [21]
  B. signalgrass plant response rating: 0
[3]; [22]
  Plant response rating, B. signalgrass: 0
[3]; [23]
  Plant response rating, B. signalgrass: 3
[4]; [17]
  Wild oats plant response rating: 0
[4]; Preemergence, Rate 125 g/ha
  Wild oats plant response rating (0 to 10 scale): 0
[4]; [18]
  Wild oats plant response rating: 2
[4]; [19]
  Wild oats plant response rating: 3
[4]; [20]
  Wild oats plant response rating: 0
[4]; [21]
  Wild oats plant response rating: 0
[4]; [22]
  Plant response rating, Wild oats: 0
[4]; [23]
  Plant response rating, Wild oats: 2
[5]; [17]
  Soybean plant response rating: 0
[5]; Preemergence, Rate 125 g/ha
  Soybean plant response rating (0 to 10 scale): 0
[5]; [18]
  Soybean plant response rating: 0
[5]; [19]
  Soybean plant response rating: 0
[5]; [20]
  Soybean plant response rating: 1
[5]; [21]
  Soybean plant response rating: 3
[5]; [22]
  Plant response rating, Soybean: 4
[5]; [23]
  Plant response rating, Soybean: 5
[6]; [17]
  Rape plant response rating: 0
[6]; Preemergence, Rate 125 g/ha
  Rape plant response rating (0 to 10 scale): 0
[6]; [18]
  Rape plant response rating: 0
[6]; [19]
  Rape plant response rating: 2
[6]; [20]
  Rape plant response rating: 0
[6]; [21]
  Rape plant response rating: 0
[6]; [22]
  Plant response rating, Rape: 0
[6]; [23]
  Plant response rating, Rape: 0
[7]; [17]
  Velvetleaf plant response rating: 0
[7]; Preemergence, Rate 125 g/ha
  Velvetleaf plant response rating (0 to 10 scale): 0
[7]; [18]
  Velvetleaf plant response rating: 0
[7]; [19]
  Velvetleaf plant response rating: 0
[7]; [20]
  Velvetleaf plant response rating: 0
[7]; [21]
  Velvetleaf plant response rating: 0
[7]; [22]
  Plant response rating, Velvetleaf: 0
[7]; [23]
  Plant response rating, Velvetleaf: 2
[8]; [17]
  Corn plant response rating: 0
[8]; Preemergence, Rate 125 g/ha
  Corn plant response rating (0 to 10 scale): 0
[8]; [18]
  Corn plant response rating: 0
[8]; [19]
  Corn plant response rating: 0
[8]; [20]
  Corn plant response rating: 0
[8]; [21]
  Corn plant response rating: 0
[8]; [22]
  Plant response rating, Corn: 0
[8]; [23]
  Plant response rating, Corn: 0
[9]; [17]
  Redroot pigweed plant response rating: 0
[9]; Preemergence, Rate 125 g/ha
  Redroot pigweed plant response rating (0 to 10 scale): 6
[9]; [18]
  Redroot pigweed plant response rating: 8
[9]; [19]
  Redroot pigweed plant response rating: 8
[9]; [20]
  Redroot pigweed plant response rating: 2
[9]; [21]
  Redroot pigweed plant response rating: 3
[9]; [22]
  Plant response rating, Redroot pigweed: 3
[9]; [23]
  Plant response rating, Redroot pigweed: 6
[10]; [17]
  Wheat plant response rating: 0
[10]; Preemergence, Rate 125 g/ha
  Wheat plant response rating (0 to 10 scale): 0
[10]; [18]
  Wheat plant response rating: 0
[10]; [19]
  Wheat plant response rating: 0
[10]; [20]
  Wheat plant response rating: 0
[10]; [21]
  Wheat plant response rating: 0
[10]; [22]
  Plant response rating, Wheat: 0
[10]; [23]
  Plant response rating, Wheat: 3
[11]; [17]
  Sugarbeets plant response rating: 0
[11]; Preemergence, Rate 125 g/ha
  Sugarbeets plant response rating (0 to 10 scale): 2
[11]; [18]
  Sugarbeets plant response rating: 2
[11]; [19]
  Sugarbeets plant response rating: 4
[11]; [20]
  Sugarbeets plant response rating: 0
[11]; [21]
  Sugarbeets plant response rating: 0
[11]; [22]
  Plant response rating, Sugarbeets: 0
[11]; [23]
  Plant response rating, Sugarbeets: 2
[12]; [17]
  Bedstraw plant response rating: 0
[12]; Preemergence, Rate 125 g/ha
  Bedstraw plant response rating (0 to 10 scale): 0
[12]; [19]
  Bedstraw plant response rating: 2
[12]; [20]
  Bedstraw plant response rating: 0
[12]; [21]
  Bedstraw plant response rating: 0
[12]; [22]
  Plant response rating, Bedstraw: 4
[12]; [23]
  Plant response rating, Bedstraw: 4
[13]; [17]
  Blackgrass plant response rating: 0
[13]; Preemergence, Rate 125 g/ha
  Blackgrass plant response rating (0 to 10 scale): 0
[13]; [18]
  Blackgrass plant response rating: 5
[13]; [19]
  Blackgrass plant response rating: 7
[13]; [20]
  Blackgrass plant response rating: 0
[13]; [21]
  Blackgrass plant response rating: 0
[13]; [22]
  Plant response rating, Blackgrass: 1
[13]; [23]
  Plant response rating, Blackgrass: 8
[14]; [24]
  Rice plant response rating: 0
[14]; [25]
  Rice plant response rating: 0
[14]; [26]
  Rice plant response rating: 0
[15]; [24]
  S. Flatsedge plant response rating: 0
[15]; [25]
  S. Flatsedge plant response rating: 0
[15]; [26]
  S. Flatsedge plant response rating: 0
[16]; [17]
  Cocklebur plant response rating: 0
[16]; Preemergence, Rate 125 g/ha
  Cocklebur plant response rating (0 to 10 scale): 0
[16]; [18]
  Cocklebur plant response rating: 0
[16]; [19]
  Cocklebur plant response rating: 4
[16]; [20]
  Cocklebur plant response rating: 0
[16]; [21]
  Cocklebur plant response rating: 0
[16]; [22]
  Plant response rating, Cocklebur: 0
[16]; [23]
  Plant response rating, Cocklebur: 4

— patent US6737383B1, “Herbicidal oxadiazolidines” (priority 1999, dated 2004)
